Test [1] has as its system C. elegans var. Bristol (N2). As to the kind of experiment: C. elegans lifespan analysis. Particulars: for lifespan extension versus untreated control worms / lifespan versus spermidine treated worms: lifelong treatment; for lifespan extension versus untreated control worms: 0.2 mM spermidine, 0.5 mM 1-MNA, 0.01 and 0.1 mM PEA, 0.01 mM OEA, b30 prints 100 μM spermidine, 100 μM 1-MNA; for lifespan extension versus Control: lifelong exposure. Type of test: in vivo. The procedure:
C. elegans var. Bristol (N2), was used as the wild-type strain. Strains were maintained and lifespan assays were performed at 20° C. Twenty-four hours after seeding Escherichia coli (OP50) bacteria on standard NGM plates, the bacteria were killed by 4 min exposure to UV irradiation using a Stratalinker UV crosslinker (Stratagene, Model 2400). The following concentrations of compounds were used: 0.2 mM spermidine, 0.5 mM 1-MNA, 0.01 and 0.1 mM PEA, and 0.01 mM OEA. Spermidine and MNA were diluted into 100 μl sterilized water and applied to the top of the agar medium (3 ml NGM plates). Plates were then gently swirled to allow compounds to spread to the entire NGM surface. Identical solutions of compound-free water were used for the control plates. Plates were then allowed to dry overnight. The procedure was repeated each time worms were transferred to fresh plates (every 2-4 days). PEA and OEA were added to cooled agar, prior to solidification; for the combination, all compounds were added to cooled agar and plates stored at 4° C. Synchronous worm populations were generated by hypochlorite treatment of gravid adults and life span assays were performed beginning at the L4 stage (Day 0). Seven to eight plates of 15 worms each were exposed to the indicated compounds. Animals were transferred to fresh plates every 2 days for the first week and then 3-4 days thereafter. Worms were examined for touch-provoked movement and pharyngeal pumping, until death. Worms that died due to desiccation from crawling on the edge of the plates, were censored. Kaplan-Meier survival curves were created to evaluate C. elegans lifespan. The R package survival (3.1.8) was used to fit the Cox proportional hazards regression model to evaluate differences of survivals between each treatment group versus control.

Test [2] relates to total cyclooxygenase (COX) activity. Put plainly: COX activity assay in LPS stimulated THP-1 macrophage. Format: cell-based, human. The following applies: spermidine 100 μM, 1-MNA 100 μM, PEA 10 nM, OEA 10 μM, Combo = all four. The procedure: For certain assays requiring high cellular concentrations beyond what was feasible to isolate from human volunteers, THP-1 monocytes (ATCC, TIB-202) were cultured in RPMI 1640, 10% FBS, lx PSG and differentiated into M0 macrophage using 100 nM phorbol 12-myristate-13-acetate (PMA) for 2 days followed by incubation with clean RPMI, 10% FBS, 1×PSG for 1 day.
The effect of treatment with participant plasma and individual metabolites on the total cellular COX activity of THP-1 macrophage was measured using a commercially available kit (Cayman Chemical, 760151). In order to induce COX-2 expression, THP-1 macrophage were incubated with 10 ng/mL of lipopolysaccharide (LPS) (Sigma, LPS25) in RPMI, 1×PSG along with 20% participant plasma, or in RMPI, 10% FBS, 1×PSG either alone as a positive control or with isolated metabolites overnight (approximately 18 hrs) before measuring total COX activity from cell lysates. A negative control of macrophage in RPMI, 10% FBS, 1×PSG without LPS was also performed. (Inter CV: 5.4, Intra CV: 12.3)

Each structure is given as a SMILES string. “Also recorded” adds a separate entry of the source.

With `C[n+]1cccc(C(N)=O)c1` [1-MNA, 1-methylnicotinamide], in test [1], the “lifespan extension versus untreated control worms” value is “Significant lifespan extension was observed for all metabolites except 1-MNA”.
On the same count and under the same terms, under `NCCCCNCCCN` [spermidine] stands “significantly increased lifespan extension; also recorded: Significant lifespan extension”.
For the compound `CCCCCCCC/C=C\CCCCCCCC(=O)NCCO` [OEA, oleoylethanolamide], in test [1], the “lifespan versus spermidine treated worms” value is “significantly increased lifespan” and the “lifespan extension versus untreated control worms” value is on record as “significantly increased lifespan extension; also recorded: Significant lifespan extension”.
Regarding `CCCCCCCCCCCCCCCC(=O)NCCO` [PEA, palmitoylethanolamide], in test [1] (PEA 10 μM (lower concentration)), the “lifespan extension versus Control” value is “most effective at increasing lifespan; also recorded: Significant lifespan extension”. Moreover, the “lifespan extension versus Control” value in test [1] (PEA 100 μM) is “Significant lifespan extension”. Besides, in test [1], the “lifespan versus spermidine treated worms” value was “significantly increased lifespan” and the “lifespan extension versus untreated control worms” value is given as “significantly increased lifespan extension”. Further, the “total COX activity versus vehicle treated positive control” value in test [2] is “potent inhibitor of COX activity”.

These data come from US20230330040A1, “IMMUNOLOGICAL EFFECTS OF METABOLITES” (The Regents of the University of California, priority 2020, published 2023).
